{"source": "patent US8895273B2", "about": "“Conversion of hexuronic acid to hexaric acid” (Teknologian Tutkimuskeskus VTT, priority 2008, dated 2014)", "key": {"[1]": {"target": "T1, D-galacturonic acid dehydrogenase (uronate dehydrogenase, EC 1.1.1.203, uro1) (Agrobacterium fabrum, UniProt Q7CRQ0)", "T1 construct": "histidine-tag (His6); made in house; host or cells: Saccharomyces cerevisiae CEN.PK; purified on Ni-NTA-agarose", "T1 sequence (Q7CRQ0 whole entry, added parts left off)": "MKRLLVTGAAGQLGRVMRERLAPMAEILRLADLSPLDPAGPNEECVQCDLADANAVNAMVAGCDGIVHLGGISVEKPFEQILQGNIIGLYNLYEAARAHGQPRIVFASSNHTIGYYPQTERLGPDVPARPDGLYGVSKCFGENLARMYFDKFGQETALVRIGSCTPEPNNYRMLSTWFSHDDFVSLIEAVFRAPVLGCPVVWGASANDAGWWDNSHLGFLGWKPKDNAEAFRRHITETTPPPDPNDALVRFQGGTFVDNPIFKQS", "test": "Michaelis-Menten characterization of the purified histidine-tagged D-galacturonic acid dehydrogenase (uro1)", "type": "biochemical, Agrobacterium tumefaciens", "conditions": "for enzyme activity with the substrate: purified histidine-tagged protein", "description": "(§1) The S. cerevisiae strain resulting from the Example 1 was then disintegrated by vortexing with glass beads and the yeast extract analysed for D-galacturonic acid dehydrogenase activity. In a control experiment a similar strain but with an empty plasmid was used. To assay the D-galacturonic acid dehydrogenase activity the crude cell extract was mixed with 0.5 mM NAD and 4 mM D-galacturonic acid in a 50 mM Tris pH 7.5 buffer containing 0.5 mM MgCl2. The activity was 0.12 units per mg of extracted protein. One unit is the activity that forms 1 μmol of product per minute. In the control strain no activity could be detected.\n(§2) The D-galacturonic acid dehydrogenase with a histidine-tag at the N-terminal end was produced in a similar manner as in the Example 1, except that the histidine-tag was introduced by PCR. To introduce the histidine tag the following primers were used 5′-[…]-3′ (SEQ ID NO:5) in sense direction and 5′-[…]-3′ (SEQ ID NO:6) in anti-sense.\n(§3) After the expression of the histidine-tagged protein in S. cerevisiae as described in the Example 1 the activity was measured as described in the Example 2. […] The histidine-tagged D-galacturonic acid dehydrogenase was then purified using a Ni-NTA-agarose (Qiagen) according to the instructions of the manufacturer. The purified enzyme gave a single band in an SDS PAGE.\n(§4) The purified protein was then used to estimate the Michaelis-Menten constants."}, "[2]": {"target": "T2, uronate dehydrogenase from Pseudomonas (GenBank EU377538) (Pseudomonas syringae pv. tomato, UniProt Q888H1)", "T2 construct": "The open reading frame was released by digestion with NcoI and SpeI; made in house; host or cells: Saccharomyces cerevisiae CEN.PK (crude cell extract)", "T2 sequence (Q888H1 whole entry)": "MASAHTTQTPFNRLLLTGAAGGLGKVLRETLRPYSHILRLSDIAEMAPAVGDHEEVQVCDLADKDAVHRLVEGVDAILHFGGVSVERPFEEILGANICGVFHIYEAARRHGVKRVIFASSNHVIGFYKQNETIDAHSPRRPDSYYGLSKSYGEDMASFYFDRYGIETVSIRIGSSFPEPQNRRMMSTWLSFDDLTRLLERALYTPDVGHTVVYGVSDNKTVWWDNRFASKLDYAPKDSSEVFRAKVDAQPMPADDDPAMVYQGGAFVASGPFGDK", "test": "Enzyme activity of uronate dehydrogenase from Pseudomonas expressed in S. cerevisiae", "type": "biochemical, Pseudomonas syringae pv. tomato str. DC3000", "conditions": "yeast extract, with NAD, tested as in Example 2", "description": "as §1\nThe DNA coding for uronate dehydrogenase was custom-synthesised by GENEART. The codes for the same amino acid as the gene with the GenBank accession number EU377538. The DNA sequence is in the Sequence Listing SEQ ID NO: 19. It codes for the amino acid sequence SEQ ID NO:20.\nThe open reading frame was released by digestion with NcoI and SpeI. The resulting fragment was then ligated to the NcoI and NheI sites of the pYX212 (R&D Systems) which is a multicopy yeast expression vector with PGK1 promoter and URA3 selection marker. The resulting vector was then transfected to the S. cerevisiae strain CEN.PK as in the Example 1. The enzyme activity was then tested as in Example 2."}, "[3]": {"tested_on": "O=C[C@H](O)[C@@H](O)[C@@H](O)[C@H](O)C(=O)O", "test": "Michaelis-Menten characterization of the purified histidine-tagged D-galacturonic acid dehydrogenase (uro1)", "type": "biochemical, Agrobacterium tumefaciens", "conditions": "other: purified histidine-tagged enzyme; Michaelis-Menten constant of the substrate/cofactor; pH 7.5", "description": "as §1, §2, §3, §4"}, "[4]": {"tested_on": "O=C[C@H](O)[C@@H](O)[C@H](O)[C@H](O)C(=O)O", "test": "Michaelis-Menten characterization of the purified histidine-tagged D-galacturonic acid dehydrogenase (uro1)", "type": "biochemical, Agrobacterium tumefaciens", "conditions": "other: purified histidine-tagged enzyme; Michaelis-Menten constant of the substrate/cofactor; pH 7.5", "description": "as §1, §2, §3, §4"}}}
{"compound": "NC(=O)c1ccc[n+]([C@@H]2O[C@H](COP(=O)([O-])OP(=O)(O)OC[C@H]3O[C@@H](n4cnc5c(N)ncnc54)[C@H](O)[C@@H]3O)[C@@H](O)[C@H]2O)c1", "note": "[NAD]", "values": [{"measurement": "Km", "setting": "[1]; purified histidine-tagged enzyme, Michaelis-Menten constant of the substrate/cofactor", "result": 900, "unit": "µM"}, {"measurement": "Vmax", "setting": "[1]; purified histidine-tagged enzyme, one unit forms 1 μmol of product per minute", "result": "145 units per mg of protein"}]}
{"compound": "O=C[C@H](O)[C@@H](O)[C@H](O)[C@H](O)C(=O)O", "note": "[GlcUA, D-glucuronic acid]", "values": [{"measurement": "enzyme activity with the substrate", "setting": "[1]", "result": "active"}, {"measurement": "enzyme activity with the substrate", "setting": "[2]", "result": "showed activity"}]}
{"compound": "D-galacturonic acid dehydrogenase (uronate dehydrogenase, EC 1.1.1.203, uro1) (Agrobacterium fabrum str. C58)", "values": [{"measurement": "Km", "setting": "[3]", "result": 0.5, "unit": "mM"}, {"measurement": "Vmax", "setting": "[3]", "result": "124 units per mg of protein"}, {"measurement": "Km", "setting": "[4]", "result": 1.1, "unit": "mM"}, {"measurement": "Vmax", "setting": "[4]", "result": "221 units per mg of protein"}]}
{"compound": "O=C[C@H](O)[C@@H](O)[C@@H](O)[C@H](O)C(=O)O", "note": "[D-galacturonic acid]", "values": [{"measurement": "enzyme activity with the substrate", "setting": "[1]", "result": "active"}, {"measurement": "enzyme activity with the substrate", "setting": "[2]", "result": "showed activity"}]}
